This note sets out measurements from the Kinase Knowledgebase extract (Sharma et al. 2016).

The term pIC50 denotes the negative decadic logarithm of the IC50, by convention in mol/L.

pIC50: −log10 of the molar value. Some results are limits rather than exact numbers.

The target in the test is MAPK14 (UniProt Q16539). The test is described as follows: Inhibition of MAPK14 Kinase Activity.
Chain of MAPK14 (Q16539 whole entry, looked up): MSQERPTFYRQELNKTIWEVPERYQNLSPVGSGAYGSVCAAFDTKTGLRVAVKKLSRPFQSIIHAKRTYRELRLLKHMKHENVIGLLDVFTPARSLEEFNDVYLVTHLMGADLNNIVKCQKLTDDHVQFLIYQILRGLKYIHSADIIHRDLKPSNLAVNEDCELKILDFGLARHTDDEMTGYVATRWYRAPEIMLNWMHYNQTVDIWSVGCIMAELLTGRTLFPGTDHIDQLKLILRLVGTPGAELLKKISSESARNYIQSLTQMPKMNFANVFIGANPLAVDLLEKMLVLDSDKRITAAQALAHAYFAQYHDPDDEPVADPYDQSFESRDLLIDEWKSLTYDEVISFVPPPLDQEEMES

With `Cc1c(F)cc(C(=O)NC2CC2)cc1-c1ccc(C(=O)N(C)CCC2CCCC2)cn1`, the pIC50 was over 5.00.

Consider `Cc1c(F)cc(C(=O)NC2CC2)cc1-c1ccc(C(=O)NCC(F)c2ccccc2)cn1` (stereo not drawn), for which the pIC50 was over 5.00. The same measure for `Cc1ccc(C(=O)NCC2CC2)cc1-c1ccc(C(=O)NCC2CC2)cn1`: over 5.00; for `Cc1c(F)cc(C(=O)NC2CC2)cc1-c1ccc(C(=O)NCc2c(F)ccc(F)c2Cl)cn1`: over 5.00; for `Cc1ccc(NC(=O)c2ccnc(N3CCCC3)c2)cc1-c1ccc(C(=O)NCC2CC2)cn1`: over 5.00. As to `Cc1ccc(NC(=O)c2ccsc2)cc1-c1ccc(C(=O)NCC2CC2)cn1`, the pIC50 was over 5.00. The compound `Cc1c(F)cc(C(=O)NC2CC2)cc1-c1ccc(C(=O)N(C)C(C)C)cn1` showed a pIC50 of over 5.00. The compound `Cc1c(F)cc(C(=O)NC2CC2)cc1-c1ccc(C(=O)NCc2cccc(Cl)c2)cn1` showed a pIC50 of over 5.00.

`Cc1ccc(C(=O)Nc2nncs2)cc1-c1ccc(C(=O)NCC2CC2)cn1` showed a pIC50 of over 5.00. The compound `CC(C)=CCNC(=O)c1ccc(-c2cc(C(=O)NC3CC3)cc(F)c2C)nc1` had a pIC50 of over 5.00.

Compound `CCC1(C)CCCCN1C(=O)c1ccc(-c2cc(C(=O)NC3CC3)cc(F)c2C)nc1` (stereo not drawn) gave a pIC50 of over 5.00.

In turn, `Cc1c(F)cc(C(=O)NC2CC2)cc1-c1ccc(C(=O)N2CCC(C)CC2)cn1` had a pIC50 of over 5.00. Under `Cc1c(F)cc(C(=O)NC2CC2)cc1-c1ccc(C(=O)NCCc2ccccc2)cn1` stands over 5.00; under `COCCNC(=O)c1ccc(-c2cc(C(=O)NC3CC3)cc(F)c2C)nc1`, over 5.00; under `CCN(C(=O)c1ccc(-c2cc(C(=O)NC3CC3)cc(F)c2C)nc1)C1CCCCC1`, over 5.00. The same measure for `Cc1c(F)cc(C(=O)NC2CC2)cc1-c1ccc(C(=O)N2CCCC(C)(C)C2)cn1`: over 5.00. `CCC(C)(CC)NC(=O)c1ccc(-c2cc(C(=O)NC3CC3)cc(F)c2C)nc1` had a pIC50 of over 5.00. As for `Cc1c(F)cc(C(=O)NC2CC2)cc1-c1ccc(C(=O)NCc2ccc(F)c(F)c2)cn1`, the pIC50 is over 5.00. The same measure for `Cc1ccccc1CNC(=O)c1ccc(-c2cc(C(=O)NC3CC3)cc(F)c2C)nc1`: over 5.00; for `Cc1c(F)cc(C(=O)NC2CC2)cc1-c1ccc(C(=O)NCc2ccccc2)cn1`: over 5.00. The same measure for `Cc1c(F)cc(C(=O)NC2CC2)cc1-c1ccc(C(=O)NCc2cccc(C(F)(F)F)c2)cn1`: over 5.00.

For the compound `Cc1c(F)cc(C(=O)NC2CC2)cc1-c1ccc(C(=O)NC(C)C2CC2)cn1` (stereo not drawn), the pIC50 is over 5.00. Under `Cc1ccc(C(=O)Nc2nncs2)cc1-c1ccc(C(=O)Nc2ccccc2CN2CCN(C)CC2)cn1` stands over 5.00; under `Cc1c(F)cc(C(=O)NC2CC2)cc1-c1ccc(C(=O)NCCC(C)C)cn1`, over 5.00. Under `COc1cccc(CNC(=O)c2ccc(-c3cc(C(=O)Nc4nccs4)ccc3C)nc2)c1` stands over 5.00; under `Cc1c(F)cc(C(=O)NC2CC2)cc1-c1ccc(C(=O)NCc2ccc(F)cc2F)cn1`, over 5.00. Under `Cc1c(F)cc(C(=O)NC2CC2)cc1-c1ccc(C(=O)NCc2ccc(Cl)cc2)cn1` stands over 5.00.

Consider `COc1cccc(CNC(=O)c2ccc(-c3cc(C(=O)NCC4CC4)ccc3C)nc2)c1`, for which the pIC50 was over 5.00. The compound `Cc1c(F)cc(C(=O)NC2CC2)cc1-c1ccc(C(=O)NCCOC(C)(C)C)cn1` gave a pIC50 of over 5.00. The same measure for `Cc1ccc(CNC(=O)c2ccc(-c3cc(C(=O)NC4CC4)cc(F)c3C)nc2)cc1F`: over 5.00; for `CCCNC(=O)c1ccc(-c2cc(C(=O)NC3CC3)cc(F)c2C)nc1`: over 5.00; for `C/C=C/C(C)(C)NC(=O)c1ccc(-c2cc(C(=O)NC3CC3)cc(F)c2C)nc1`: over 5.00.

Regarding `Cc1ccc(C(=O)Nc2cccc(-c3ccccn3)c2)cc1-c1ccc(C(=O)NCC2CC2)cn1`, the pIC50 was over 5.00.

`Cc1c(F)cc(C(=O)NC2CC2)cc1-c1ccc(C(=O)NCCc2nccs2)cn1` gave a pIC50 of over 5.00. Under `Cc1c(F)cc(C(=O)NC2CC2)cc1-c1ccc(C(=O)NC2CCC2)cn1` stands over 5.00; under `CCC(C)NC(=O)c1ccc(-c2cc(C(=O)NC3CC3)cc(F)c2C)nc1` (stereo not drawn), over 5.00. Under `CCC1CCCCN1C(=O)c1ccc(-c2cc(C(=O)NC3CC3)cc(F)c2C)nc1` (stereo not drawn) stands over 5.00; under `Cc1c(F)cc(C(=O)NC2CC2)cc1-c1ccc(C(=O)N(C)C2CCCC2)cn1`, over 5.00. In turn, `COc1cccc(CNC(=O)c2ccc(-c3cc(NC(=O)c4ccoc4)ccc3C)nc2)c1` had a pIC50 of over 5.00. Under `Cc1c(F)cc(C(=O)NC2CC2)cc1-c1ccc(C(=O)NCc2c(F)ccc(Cl)c2F)cn1` stands over 5.00; under `Cc1c(F)cc(C(=O)NC2CC2)cc1-c1ccc(C(=O)NCc2ccc(F)c(F)c2F)cn1`, over 5.00. The same measure for `CCCC(C)(C)NC(=O)c1ccc(-c2cc(C(=O)NC3CC3)cc(F)c2C)nc1`: over 5.00; for `Cc1ccsc1CNC(=O)c1ccc(-c2cc(C(=O)NC3CC3)cc(F)c2C)nc1`: over 5.00. Under `Cc1ccc(CNC(=O)c2ccc(-c3cc(C(=O)NC4CC4)cc(F)c3C)nc2)c(F)c1F` stands over 5.00.

Compound `COc1cccc(CNC(=O)c2ccc(-c3cc(C(=O)NC4CC4)ccc3C)nc2)c1` showed a negative-log IC50 (pIC50) of over 5.00.

`CCCC(C)NC(=O)c1ccc(-c2cc(C(=O)NC3CC3)cc(F)c2C)nc1` (stereo not drawn) gave a pIC50 of over 5.00. Compound `COc1ccc(NC(=O)c2ccc(-c3cc(C(=O)NC4CC4)ccc3C)nc2)cc1` showed a negative-log IC50 (pIC50) of over 5.00. Under `Cc1csc(CCNC(=O)c2ccc(-c3cc(C(=O)NC4CC4)cc(F)c3C)nc2)n1` stands over 5.00; under `Cc1ccc(C(=O)Nc2nccs2)cc1-c1ccc(C(=O)NCC2CC2)cn1`, over 5.00. Under `Cc1c(F)cc(C(=O)NC2CC2)cc1-c1ccc(C(=O)NC(C)Cc2nccs2)cn1` (stereo not drawn) stands over 5.00. The same measure for `Cc1ccc(NC(=O)c2ccc(-c3cc(C(=O)NC4CC4)cc(F)c3C)nc2)cc1`: over 5.00.

`COc1cccc(CNC(=O)c2ccc(-c3cc(NC(=O)c4ccsc4)ccc3C)nc2)c1` had a pIC50 of over 5.00.

For `Cc1c(F)cc(C(=O)NC2CC2)cc1-c1ccc(C(=O)NCc2ccccc2F)cn1`, the pIC50 is over 5.00. On to `Cc1ccc(C(=O)NC2CC2)cc1-c1ccc(C(=O)NCc2cccc(NS(C)(=O)=O)c2)cn1`, for which the pIC50 was over 5.00. Under `Cc1c(F)cc(C(=O)NC2CC2)cc1-c1ccc(C(=O)NCC2CCC2)cn1` stands over 5.00. As to `COc1ccc(NC(=O)c2ccc(-c3cc(C(=O)Nc4nccs4)ccc3C)nc2)cc1`, the pIC50 was over 5.00. Under `Cc1c(F)cc(C(=O)NC2CC2)cc1-c1ccc(C(=O)NCC2CCCCC2)cn1` stands over 5.00; under `Cc1c(F)cc(C(=O)NC2CC2)cc1-c1ccc(C(=O)N(C)C2(C)CCCC2)cn1`, over 5.00.
